Columns and labels:
HLM in vitro = type: in vitro ADME, human
human PXR = target: T1, human PXR (Homo sapiens, UniProt O75469); assay: Human PXR @ 2 uM POC; type: in vitro ADME
T1 sequence (O75469 1-434): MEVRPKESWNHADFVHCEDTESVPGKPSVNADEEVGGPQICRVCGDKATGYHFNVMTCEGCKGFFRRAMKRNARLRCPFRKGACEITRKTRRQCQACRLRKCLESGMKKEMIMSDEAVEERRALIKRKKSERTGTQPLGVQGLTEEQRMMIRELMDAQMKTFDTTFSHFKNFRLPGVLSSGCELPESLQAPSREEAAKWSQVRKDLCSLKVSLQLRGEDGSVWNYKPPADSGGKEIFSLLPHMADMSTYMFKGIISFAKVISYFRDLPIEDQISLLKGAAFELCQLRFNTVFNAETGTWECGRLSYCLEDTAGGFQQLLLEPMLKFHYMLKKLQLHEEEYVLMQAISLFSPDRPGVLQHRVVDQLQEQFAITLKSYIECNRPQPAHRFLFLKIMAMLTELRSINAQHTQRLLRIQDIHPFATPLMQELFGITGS

human Nav1.7 = target: T2, human Nav1.7 (Homo sapiens, UniProt Q15858); assay: Nav 1.7 In Vitro PX Assay (PatchXpress whole cell voltage clamp, partially inactivated state); type: cell-based; conditions: HEK 293 cells stably transfected with human Nav1.7, holding potential yielding 20 to 50% inactivation, read-out: hNav1.7 PX IC50
T2 construct: expressed in transfected cells; host or cells: HEK 293
Method: Nav 1.7 In Vitro PX Assay
HEK 293 cells stably transfected with human Nav1.7 were recorded in whole cell voltage clamp mode with the PatchXpress automated electrophysiology system (Molecular Devices, LLC, Sunnyvale, Calif.). Compound effects were measured on a partially inactivated state of the sodium channel Cells were clamped to a holding potential yielding 20 to 50% inactivation. To elicit sodium current, channels were activated by pulsing to −10 mV for 20 msec. This voltage protocol was repeated at a rate of 0.1 Hz throughout the experiment. A single concentration of test compound was applied to cells for a duration of 3 minutes. Peak sodium current was measured at the end of the compound addition period to determine percent inhibition. Three to five cells were tested per concentration, and IC50 curves were fitted to percent inhibition as a function of concentration.

hNav1.7 = target: T3, hNav1.7 (Homo sapiens, UniProt Q15858); assay: Nav 1.7 IWQ In Vitro Assay (IonWorks Quattro population patch-clamp); type: cell-based; conditions: HEK 293 cells stably transfected with Nav 1.7, 26th pulse to -20 mV
T3 construct: expressed in transfected cells; host or cells: HEK 293
Method: Nav 1.7 or Nav 1.5 IWQ In Vitro Assay
HEK 293 Cells stably transfected with either Nav 1.7 or Nav 1.5 were recorded in population patch-clamp mode with the IonWorks® Quattro automated electrophysiology system in accordance with the manufacturer's specifications (Molecular Devices, LLC, Sunnyvale, Calif.). Sodium channel currents were measured in response to a train of depolarizations that induced successively greater inactivation.
Cells were held at −110 mV for three seconds (Nav 1.7) or half a second (Nav 1.5) from a holding voltage of −15 mV, then put through a series of 26 pulses of 150 msec duration to −20 mV at a frequency of 5 Hz. Cells were then left unclamped for a period of 3 to 8 minutes while a single concentration of test compound was added. Cells were then reclamped and put through the same voltage protocol. Current at the end of the 26th pulse to −20 mV was subtracted from the peak current evoked by the 26th pulse to −20 mV to correct for leak current. Percent block was calculated for each concentration in duplicate, and IC50 curves were fitted to percent block as a function of concentration.

T2 sequence (Q15858 whole entry): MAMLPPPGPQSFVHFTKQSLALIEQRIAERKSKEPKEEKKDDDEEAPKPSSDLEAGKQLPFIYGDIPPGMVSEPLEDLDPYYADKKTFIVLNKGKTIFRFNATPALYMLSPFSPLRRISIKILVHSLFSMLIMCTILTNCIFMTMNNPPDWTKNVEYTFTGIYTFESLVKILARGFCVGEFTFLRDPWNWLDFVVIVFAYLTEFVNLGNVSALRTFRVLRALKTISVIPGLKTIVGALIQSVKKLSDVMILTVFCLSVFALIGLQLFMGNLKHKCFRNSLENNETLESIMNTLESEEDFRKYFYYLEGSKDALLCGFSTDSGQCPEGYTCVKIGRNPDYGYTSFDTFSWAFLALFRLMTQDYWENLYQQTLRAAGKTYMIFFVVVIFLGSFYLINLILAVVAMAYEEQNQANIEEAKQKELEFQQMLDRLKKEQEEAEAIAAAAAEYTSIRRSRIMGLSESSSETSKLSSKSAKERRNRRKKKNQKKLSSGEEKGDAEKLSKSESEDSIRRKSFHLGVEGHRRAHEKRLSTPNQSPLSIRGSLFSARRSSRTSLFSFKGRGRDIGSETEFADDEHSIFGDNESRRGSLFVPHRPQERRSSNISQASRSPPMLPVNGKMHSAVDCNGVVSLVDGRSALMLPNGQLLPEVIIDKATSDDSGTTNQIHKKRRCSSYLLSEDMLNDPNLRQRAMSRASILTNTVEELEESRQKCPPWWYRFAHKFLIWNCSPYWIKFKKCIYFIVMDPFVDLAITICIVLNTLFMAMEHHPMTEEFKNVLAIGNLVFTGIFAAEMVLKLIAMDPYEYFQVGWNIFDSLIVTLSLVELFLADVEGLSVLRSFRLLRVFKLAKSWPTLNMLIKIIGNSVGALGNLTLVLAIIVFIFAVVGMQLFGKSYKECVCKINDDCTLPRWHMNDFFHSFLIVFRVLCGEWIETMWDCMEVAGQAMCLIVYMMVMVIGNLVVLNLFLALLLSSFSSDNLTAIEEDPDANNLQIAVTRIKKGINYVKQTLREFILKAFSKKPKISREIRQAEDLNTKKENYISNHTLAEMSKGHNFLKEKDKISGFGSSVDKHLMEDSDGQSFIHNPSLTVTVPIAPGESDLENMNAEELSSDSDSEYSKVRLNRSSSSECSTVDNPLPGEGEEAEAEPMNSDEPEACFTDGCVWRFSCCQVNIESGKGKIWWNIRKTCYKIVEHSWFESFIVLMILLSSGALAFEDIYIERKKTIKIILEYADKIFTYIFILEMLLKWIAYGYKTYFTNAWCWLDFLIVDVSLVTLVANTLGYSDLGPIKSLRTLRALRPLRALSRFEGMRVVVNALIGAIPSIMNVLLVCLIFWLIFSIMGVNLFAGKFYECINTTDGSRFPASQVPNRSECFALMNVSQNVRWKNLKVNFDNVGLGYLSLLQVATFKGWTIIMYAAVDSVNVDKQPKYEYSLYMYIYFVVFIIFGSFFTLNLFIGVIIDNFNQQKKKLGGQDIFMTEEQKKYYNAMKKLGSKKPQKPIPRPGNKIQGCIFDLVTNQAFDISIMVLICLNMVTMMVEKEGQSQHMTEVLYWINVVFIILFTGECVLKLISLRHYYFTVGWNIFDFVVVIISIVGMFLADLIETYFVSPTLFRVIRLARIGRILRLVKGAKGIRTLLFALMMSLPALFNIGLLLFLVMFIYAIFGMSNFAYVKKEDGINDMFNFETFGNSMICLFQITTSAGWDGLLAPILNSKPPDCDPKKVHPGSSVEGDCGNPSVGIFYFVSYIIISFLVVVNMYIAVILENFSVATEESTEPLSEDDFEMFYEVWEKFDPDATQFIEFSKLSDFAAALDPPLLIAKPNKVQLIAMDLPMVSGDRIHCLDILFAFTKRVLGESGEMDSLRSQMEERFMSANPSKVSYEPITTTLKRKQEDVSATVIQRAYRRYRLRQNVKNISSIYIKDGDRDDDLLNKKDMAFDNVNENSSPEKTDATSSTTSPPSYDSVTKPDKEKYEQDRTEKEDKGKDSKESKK
T3 sequence (Q15858 whole entry): as above

HLM in vitro (HLM in vitro)	human PXR @ 2 uM POC S (human PXR)	IC50 (human Nav1.7)	IC50 (hNav1.7)	Structure (SMILES)
<14.0 [2] μL/(min · mg)	0.22%	320 nM	2 nM	COc1cc(CCC(F)(F)F)c(F)cc1-n1c(=O)ccc2cc(S(=O)(=O)Nc3ccon3)ccc21 (atropisomer, axis not shown; (P)) [Example 1, (P)-1-(5-fluoro-2-methoxy-4-(3,3,3-trifluoropropyl)phenyl)-N-(isoxazol-3-yl)-2-oxo-1,2-dihydroquinoline-6-sulfonamide]
<14.0 µL/min/mg	2.38%	80 nM	5 nM	COc1cc(CCC(F)(F)F)c(Cl)cc1-n1c(=O)ccc2cc(S(=O)(=O)Nc3ccon3)ccc21 (atropisomer, axis not shown; (P)) [Example 2, (P)-1-(5-chloro-2-methoxy-4-(3,3,3-trifluoropropyl)phenyl)-N-(isoxazol-3-yl)-2-oxo-1,2-dihydroquinoline-6-sulfonamide]
<14.0 µL/min/mg	3.20%	980 nM	2 nM	COc1cc(CCC(F)(F)F)c(F)cc1-n1c(=O)ccc2cc(S(=O)(=O)Nc3cccnn3)ccc21 (atropisomer, axis not shown; (P)) [Example 3, (P)-1-(5-fluoro-2-methoxy-4-(3,3,3-trifluoropropyl)phenyl)-2-oxo-N-(Pyridazin-3-yl)-1,2-dihydroquinoline-6-sulfonamide]
<14.0 µL/min/mg	1.87%	870 nM	2 nM	COc1cc(CCCC(F)(F)F)c(F)cc1-n1c(=O)ccc2cc(S(=O)(=O)Nc3ccon3)ccc21 (atropisomer, axis not shown; (P)) [Example 5, (P)-1-(5-fluoro-2-methoxy-4-(4,4,4-trifluorobutyl)phenyl)-N-(isoxazol-3-yl)-2-oxo-1,2-dihydroquinoline-6-sulfonamide]
<14.0 µL/min/mg	−2.42%	84.4 nM	5.3 nM	COc1cc(CC(F)(F)F)c(F)cc1-n1c(=O)ccc2cc(S(=O)(=O)Nc3ccon3)ccc21 (atropisomer, axis not shown; (P)) [Example 6B, (P)-1-(5-fluoro-2-methoxy-4-(2,2,2-trifluoroethyl)phenyl)-N-(isoxazol-3-yl)-2-oxo-1,2-dihydroquinoline-6-sulfonamide]
<14.0 µL/min/mg	−0.04%	720 nM	12 nM	COc1cc(C[C@@H](C)C(F)(F)F)c(F)cc1-n1c(=O)ccc2cc(S(=O)(=O)Nc3ccon3)ccc21 (racemic) [Example 4, (P)-1-(5-fluoro-2-methoxy-4-(3,3,3-trifluoro-2-methylpropyl)phenyl)-N-(isoxazol-3-yl)-2-oxo-1,2-dihydroquinoline-6-sulfonamide]
<14.0 µL/min/mg	−1.12%	320 nM	1.78 nM	COc1cc(CC(F)(F)F)c(F)cc1-n1c(=O)ccc2cc(S(=O)(=O)Nc3ccon3)ccc21 (racemic) [Example 6A, 1-(5-fluoro-2-methoxy-4-(2,2,2-trifluoroethyl)phenyl)-N-(isoxazol-3-yl)-2-oxo-1,2-dihydroquinoline-6-sulfonamide]

Reference: US10383866B2, “Alkyl dihydroquinoline sulfonamide compounds” (AMGEN INC., priority 2015, dated 2019)
